From patent US20160220590A1, “Formulations and Dosage Forms of Oxidized Phospholipids” (Vascular Biogenics Ltd., priority 2011, published 2016)

Assays:
[1] = Solubility of VB-201 in Lauroglycol FCC; type: physicochemical; details: in Lauroglycol FCC (propylene glycol laurate)
Source text: (§1) VB-201 was also found to be stable in Lauroglycol FCC over the course of 66 days (data not shown).

[2] = Stability of VB-201 in Lauroglycol FCC; type: physicochemical; details: over the course of 66 days; data not shown
Source text: as §1

[3] = Aqueous solubility of VB-201; type: physicochemical; details: at each tested pH: 0.1 M HCl (pH 1), 50 mM phosphate buffers (pH 5 and 7)
Description: The aqueous solubility of VB-201 was determined by suspending VB-201 in aqueous solutions of 0.1 M HCl (pH 1) or in 50 mM phosphate buffers (pH 5 and 7). After initial hand mixing, the preparations were further mixed by vortexing and bath sonication to try to bring about dissolution of the drug. Optical microscopy was used to examine for the presence of undissolved material. […] Thus, VB-201′ is relatively water-soluble.

[4] = Solubility of VB-201 in molten PEG6000; type: physicochemical; details: 65° C. to 105° C., 30 hours; no detectable VB-201
Description: Nine pieces of caked, non-ground VB-201 were submerged in molten PEG6000 at 65° C. and stirred slowly using a paddle mixer. The mix was held for approximately two hours at this temperature, examined visually for the dissolution state of the VB-201, and three samples of the liquid PEG6000 were then taken for analysis. The temperature was then raised by 10° C. and the process was repeated. The process was repeated in 10° C. steps until the mix reached a final temperature of 105° C. The entire process lasted 30 hours.
After 30 hours and at a temperature of 105° C., the PEG6000 had slowly turned lightly yellow (normal for prolonged heating of PEG6000 in air), yet there was no significant visible dissolution of VB-201 or reduction in size of the VB-201 pieces. After taking the final analytical samples the VB-201 pieces were removed from the melt, dried from PEG6000, and weighed.

[5] = Pharmacokinetic study, single oral dose of 40 mg VB-201 to human subjects; type: in vivo; details: single oral dose 40 mg VB-201, in all subjects
Description: Pharmacokinetic studies were performed using two different VB-201 formulations (formulation 10 of Example 13 and formulation 4 of Example 11). Single oral doses of 40 mg VB-201 were administered to 26 human subjects for each formulation, and the VB-201 plasma concentrations were measured for a period of 144 hours after dosing for each subject.

[6] = oral, daily dosages of 80 mg VB-201 per day or less; cited from earlier work

solubility of VB-201 in Lauroglycol FCC [1]: at least 255 mg per gram
stability in Lauroglycol FCC [2]: stable
aqueous solubility of VB-201 [3]: > 225 mg/gram
VB-201 concentration in molten PEG6000 [4]: < 0.5 mg/gram
time VB-201 plasma concentrations were above the assay limit of quantification [5]: at least 96 hours
SMILES: CCCCCCCCCCCCCCCCOCC(COP(=O)([O-])OCC[N+](C)(C)C)OCCCCC(=O)O (stereo not drawn) [VB-201, 1-hexadecyl-2-(4′-carboxybutyl)-glycero-3-phosphocholine]
safety and tolerability [6]: safe, well-tolerated
